Reference: patent US20130116241A1, “NOVEL INHIBITOR COMPOUNDS OF PHOSPHODIESTERASE TYPE 10A” (AbbVie Inc., priority 2011, published 2013)

Target: human PDE10A (UniProt Q9Y233)
Assay: Measurement of PDE activity (recombinant enzyme, HTRF cAMP kit)
Type: biochemical
Settings: Table 1, substrate 20 nM for PDE10, 60 minutes at 29 C, read-out: IC50
Experimental: The recombinant PDE proteins are used in in vitro enzymatic reaction for measurement of PDE activity. These recombinant proteins, including PDE10A (human, rat and mouse PDE10) and isoforms of PDEs 1, 3, 4, and 5, were purchased from commercial vendor BPS Bioscience. The enzymatic activity of PDEs was determined by cAMP measurement kit from CisBio (IBA) using HTRF technology.
The PDE enzymatic reaction was carried out in assay buffer (20 mM Tris-HCl pH7.5, 10 mM MgCl2, 0.1% bovine serum albumin) containing enzyme and substrate. The PDE enzymes concentration ranged from 10 pM-250 pM, depending on each enzyme's specific activity. The substrate cyclic nucleotide (cAMP or cGMP) concentration used in the assay was 20 nM for PDE10, and 100 nM for other PDEs. The inhibitory effect of compound was determined by incubating various concentration of inhibitor in the enzymatic assay. Typically, compound was serial diluted in DMSO then further diluted in assay buffer. Next, the compound at varying concentration was mixed with PDE enzyme. The reaction was initiated by addition of cyclic nucleotide substrate, and incubated for 60 minutes at 29 C. The reaction was stopped by addition of lysis buffer from assay kit. The cAMP-d2 and anti-cAMP cryptate in the lysis buffer detected the level of cAMP left from the PDE hydrolysis reaction. The PDE activity is reversely correlated with the amount of cAMP left in the reaction and can be converted to the percent activity of an uninhibited control (100%). Thus, IC50 value of inhibitor can be obtained by plotting inhibitor concentration against PDE activity at that concentration.

human PDE10A, sequence (Q9Y233 290-1055 limits assumed): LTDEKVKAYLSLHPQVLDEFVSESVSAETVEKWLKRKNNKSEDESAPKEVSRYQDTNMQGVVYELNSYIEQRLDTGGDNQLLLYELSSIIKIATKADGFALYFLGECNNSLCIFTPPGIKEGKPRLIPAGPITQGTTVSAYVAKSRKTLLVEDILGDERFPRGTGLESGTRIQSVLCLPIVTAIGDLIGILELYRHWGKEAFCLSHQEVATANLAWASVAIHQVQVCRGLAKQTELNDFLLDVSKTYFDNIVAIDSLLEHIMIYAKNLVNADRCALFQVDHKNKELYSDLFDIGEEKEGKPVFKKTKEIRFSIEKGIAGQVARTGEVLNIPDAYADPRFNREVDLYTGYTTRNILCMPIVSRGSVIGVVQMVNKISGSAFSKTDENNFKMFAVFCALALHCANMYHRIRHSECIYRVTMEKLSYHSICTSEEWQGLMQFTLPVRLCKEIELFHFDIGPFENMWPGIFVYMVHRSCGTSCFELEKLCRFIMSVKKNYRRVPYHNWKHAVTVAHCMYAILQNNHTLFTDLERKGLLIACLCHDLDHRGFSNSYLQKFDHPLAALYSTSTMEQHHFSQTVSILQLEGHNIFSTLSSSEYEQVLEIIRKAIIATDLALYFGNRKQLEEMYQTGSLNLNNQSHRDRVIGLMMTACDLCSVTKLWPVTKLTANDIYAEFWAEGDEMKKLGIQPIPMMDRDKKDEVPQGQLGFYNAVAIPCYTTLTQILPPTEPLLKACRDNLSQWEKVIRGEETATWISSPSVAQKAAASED

Row | SMILES | IC50 [nM]
1 | Cc1cc(-c2csc3cnn(CCc4ccc5ccccc5n4)c(=O)c23)ccn1 [Example 51, 3-(2-methylpyridin-4-yl)-5-[2-(quinolin-2-yl)ethyl]thieno[2,3-d]pyridazin-4(5H)-one] | < 100
2 | COc1cncc(-c2csc3cnn(CCc4ccc5ccccc5n4)c(=O)c23)c1 [Example 52, 3-(5-methoxypyridin-3-yl)-5-[2-(quinolin-2-yl)ethyl]thieno[2,3-d]pyridazin-4(5H)-one] | 100 to 200
3 | O=c1c2c(-c3ccc4c(c3)OCO4)csc2cnn1CCc1ccc2ccccc2n1 [Example 54, 3-(1,3-benzodioxol-5-yl)-5-[2-(quinolin-2-yl)ethyl]thieno[2,3-d]pyridazin-4(5H)-one] | 100 to 200
4 | O=c1c2c(-c3ccc4ncccc4c3)csc2cnn1CCc1ccc2ccccc2n1 [Example 55, 3-(quinolin-6-yl)-5-[2-(quinolin-2-yl)ethyl]thieno[2,3-d]pyridazin-4(5H)-one] | < 100
5 | Cn1cc(-c2csc3cnn(CCc4ccc5ccccc5n4)c(=O)c23)cn1 [Example 56, 3-(1-methyl-1H-pyrazol-4-yl)-5-[2-(quinolin-2-yl)ethyl]thieno[2,3-d]pyridazin-4(5H)-one] | < 100
6 | CC(C)Cn1cc(-c2csc3cnn(CCc4ccc5ccccc5n4)c(=O)c23)cn1 [Example 57, 3-[1-(2-methylpropyl)-1H-pyrazol-4-yl]-5-[2-(quinolin-2-yl)ethyl]thieno[2,3-d]pyridazin-4(5H)-one] | 200 to 500
7 | COc1ncc(-c2csc3cnn(CCc4ccc5ccccc5n4)c(=O)c23)cn1 [Example 59, 3-(2-methoxypyrimidin-5-yl)-5-[2-(quinolin-2-yl)ethyl]thieno[2,3-d]pyridazin-4(5H)-one] | < 100
8 | O=c1c2c(-c3ccc(F)c(F)c3F)csc2cnn1CCc1ccc2ccccc2n1 [Example 60, 5-[2-(quinolin-2-yl)ethyl]-3-(2,3,4-trifluorophenyl)thieno[2,3-d]pyridazin-4(5H)-one] | 200 to 500
9 | Cc1cc(F)ccc1-c1csc2cnn(CCc3ccc4ccccc4n3)c(=O)c12 [Example 62, 3-(4-fluoro-2-methylphenyl)-5-[2-(quinolin-2-yl)ethyl]thieno[2,3-d]pyridazin-4(5H)-one] | 200 to 500
10 | O=c1c2c(-c3ccc(F)cc3Cl)csc2cnn1CCc1ccc2ccccc2n1 [Example 64, 3-(2-chloro-4-fluorophenyl)-5-[2-(quinolin-2-yl)ethyl]thieno[2,3-d]pyridazin-4(5H)-one] | 200 to 500
11 | O=c1c2c(-c3ccc(F)cc3F)csc2cnn1CCc1ccc2ccccc2n1 [Example 67, 3-(2,4-difluorophenyl)-5-[2-(quinolin-2-yl)ethyl]thieno[2,3-d]pyridazin-4(5H)-one] | 100 to 200
12 | O=c1c2c(-c3cccc(F)c3F)csc2cnn1CCc1ccc2ccccc2n1 [Example 70, 3-(2,3-difluorophenyl)-5-[2-(quinolin-2-yl)ethyl]thieno[2,3-d]pyridazin-4(5H)-one] | 100 to 200
13 | COc1ccc(-c2csc3cnn(CCc4ccc5ccccc5n4)c(=O)c23)cc1OC [Example 71, 3-(3,4-dimethoxyphenyl)-5-[2-(quinolin-2-yl)ethyl]thieno[2,3-d]pyridazin-4(5H)-one] | 200 to 500
14 | O=c1c2c(-c3ccc(F)c(F)c3)csc2cnn1CCc1ccc2ccccc2n1 [Example 72, 3-(3,4-difluorophenyl)-5-[2-(quinolin-2-yl)ethyl]thieno[2,3-d]pyridazin-4(5H)-one] | 100 to 200
15 | O=c1c2c(-c3cc(F)ccc3F)csc2cnn1CCc1ccc2ccccc2n1 [Example 76, 3-(2,5-difluorophenyl)-5-[2-(quinolin-2-yl)ethyl]thieno[2,3-d]pyridazin-4(5H)-one] | 100 to 200
16 | COc1ccc(-c2csc3cnn(CCc4ccc5ccccc5n4)c(=O)c23)cc1F [Example 78, 3-(3-fluoro-4-methoxyphenyl)-5-[2-(quinolin-2-yl)ethyl]thieno[2,3-d]pyridazin-4(5H)-one] | 200 to 500
17 | COc1cccc(-c2csc3cnn(CCc4ccc5ccccc5n4)c(=O)c23)c1F [Example 79, 3-(2-fluoro-3-methoxyphenyl)-5-[2-(quinolin-2-yl)ethyl]thieno[2,3-d]pyridazin-4(5H)-one] | 200 to 500
18 | O=c1c2c(-c3cc(F)cc(F)c3)csc2cnn1CCc1ccc2ccccc2n1 [Example 80, 3-(3,5-difluorophenyl)-5-[2-(quinolin-2-yl)ethyl]thieno[2,3-d]pyridazin-4(5H)-one] | 100 to 200
19 | O=c1c2c(-c3ccccc3)csc2cnn1CCc1ccc2ccccc2n1 [Example 85, 3-phenyl-5-[2-(quinolin-2-yl)ethyl]thieno[2,3-d]pyridazin-4(5H)-one] | 100 to 200

Row | SMILES | IC50 [nM]
20 | O=c1c2c(-c3ccc4[nH]ncc4c3)csc2cnn1CCc1ccc2ccccc2n1 [Example 87, 3-(1H-indazol-5-yl)-5-[2-(quinolin-2-yl)ethyl]thieno[2,3-d]pyridazin-4(5H)-one] | < 100
21 | Cn1nccc1-c1csc2cnn(CCc3ccc4ccccc4n3)c(=O)c12 [Example 88, 3-(1-methyl-1H-pyrazol-5-yl)-5-[2-(quinolin-2-yl)ethyl]thieno[2,3-d]pyridazin-4(5H)-one] | < 100
22 | Cc1ccc(-c2csc3cnn(CCc4ccc5ccccc5n4)c(=O)c23)c(F)c1 [Example 90, 3-(2-fluoro-4-methylphenyl)-5-[2-(quinolin-2-yl)ethyl]thieno[2,3-d]pyridazin-4(5H)-one] | 200 to 500
23 | COc1ccc(F)c(-c2csc3cnn(CCc4ccc5ccccc5n4)c(=O)c23)c1 [Example 91, 3-(2-fluoro-5-methoxyphenyl)-5-[2-(quinolin-2-yl)ethyl]thieno[2,3-d]pyridazin-4(5H)-one] | 100 to 200
24 | O=c1c2c(-c3ccncc3)csc2cnn1CCc1ccc2cc(F)ccc2n1 [Example 93, 5-[2-(6-Fluoroquinolin-2-yl)ethyl]-3-(pyridin-4-yl)thieno[2,3-d]pyridazin-4(5H)-one] | < 100
25 | O=c1c2c(-c3ccncc3)csc2cnn1CC(F)(F)c1ccc2ccccc2n1 [Example 94, 5-[2,2-Difluoro-2-(quinolin-2-yl)ethyl]-3-(pyridin-4-yl)thieno[2,3-d]pyridazin-4(5H)-one] | < 100
26 | O=c1c2c(-c3ccncc3)csc2cnn1CCc1ccc2sccc2n1 [Example 95, 3-(Pyridin-4-yl)-5-[2-(thieno[3,2-b]pyridin-5-yl)ethyl]thieno[2,3-d]pyridazin-4(5H)-one] | < 100
27 | O=c1c2c(-c3ccncc3)csc2cnn1CCc1cn2ccccc2n1 [Example 96, 5-[2-(Imidazo[1,2-a]pyridin-2-yl)ethyl]-3-(pyridin-4-yl)thieno[2,3-d]pyridazin-4(5H)-one] | < 100
28 | O=c1c2c(-c3ccncc3)csc2cnn1CCc1cn2ccc(F)cc2n1 [Example 97, 5-[2-(7-Fluoroimidazo[1,2-a]pyridin-2-yl)ethyl]-3-(pyridin-4-yl)thieno[2,3-d]pyridazin-4(5H)-one] | < 100
29 | O=c1c2c(-c3ccncc3)cccc2cnn1CCc1ccc2ccccc2n1 [Example 98, 8-(Pyridin-4-yl)-2-[2-(quinolin-2-yl)ethyl]phthalazin-1(2H)-one] | < 100
30 | Cc1ccc(-c2cccc3cnn(CCc4ccc5ccccc5n4)c(=O)c23)cc1 [Example 100, 8-(4-Methylphenyl)-2-[2-(quinolin-2-yl)ethyl]phthalazin-1(2H)-one] | 200 to 500
31 | N#Cc1ccc(-c2cccc3cnn(CCc4ccc5ccccc5n4)c(=O)c23)cc1 [Example 103, 4-{4-Oxo-3-[2-(quinolin-2-yl)ethyl]-3,4-dihydrophthalazin-5-yl}benzonitrile] | < 100
32 | COc1ccc(-c2cccc3cnn(CCc4ccc5ccccc5n4)c(=O)c23)cc1 [Example 104, 8-(4-Methoxyphenyl)-2-[2-(quinolin-2-yl)ethyl]phthalazin-1(2H)-one] | 100 to 200
33 | O=c1c2c(-c3ccc(F)cc3)cccc2cnn1CCc1ccc2ccccc2n1 [Example 105, 8-(4-Fluorophenyl)-2-[2-(quinolin-2-yl)ethyl]phthalazin-1(2H)-one] | 100 to 200
34 | N#CCc1ccc(-c2cccc3cnn(CCc4ccc5ccccc5n4)c(=O)c23)cc1 [Example 106, (4-{4-Oxo-3-[2-(quinolin-2-yl)ethyl]-3,4-dihydrophthalazin-5-yl}phenyl)acetonitrile] | < 100
35 | O=c1c2c(-c3ccc(O)cc3)cccc2cnn1CCc1ccc2ccccc2n1 [Example 107, 8-(4-Hydroxyphenyl)-2-[2-(quinolin-2-yl)ethyl]phthalazin-1(2H)-one] | < 100
36 | O=c1c2c(-c3ccccc3Cl)cccc2cnn1CCc1ccc2ccccc2n1 [Example 108, 8-(2-chlorophenyl)-2-[2-(quinolin-2-yl)ethyl]phthalazin-1(2H)-one] | 200 to 500
37 | Cc1ccccc1-c1cccc2cnn(CCc3ccc4ccccc4n3)c(=O)c12 [Example 109, 8-(2-Methylphenyl)-2-[2-(quinolin-2-yl)ethyl]phthalazin-1(2H)-one] | 200 to 500
38 | O=c1c2c(-c3ccccc3F)cccc2cnn1CCc1ccc2ccccc2n1 [Example 111, 8-(2-Fluorophenyl)-2-[2-(quinolin-2-yl)ethyl]phthalazin-1(2H)-one] | < 100
